Results taken from patent US3954775A, “Thiazolo(5,4-f)quinoline-8-carboxylic acid derivatives” (Sumitomo Chemical Company, Limited, priority 1973, dated 1976).
Values after ≈ are worked out from the molar mass of the structure shown. Like-named read-outs stand apart in the source and are kept apart here.

How the values were obtained:
[1] = test system: gram-positive bacteria such as Staphylococcus, Streptococcus, Diplococcus; experiment: in vitro antibacterial activity on gram-positive bacteria, tube dilution method; format: cell-based; conditions: result in words
Source text: (§1) The in vitro antibacterial activities were compared with 6-ethyl-2,3,6,9-tetrahydro-3-methyl-2,9-dioxothiazolo[5,4-f]quinoline-8-carboxylic acid (hereinafter Compound (D)) and nalidixic acid (hereinafter Compound (E)) using the tube dilution method.
The antibacterial spectrum of 3-benzyl-6-benzyloxy-2,3,6,9-tetrahydro-2,9-dioxothiazolo[5,4-f]quinoline- 8-carboxylic acid (hereinafter Compoud (B)) is different from the other compounds.

[2] = test system: Bacillus subtilis PCI 219; experiment: in vitro antibacterial activity, tube dilution method; format: cell-based; conditions: PCI219, read-out: In vitro Antibacterial Activities
Source text: as §1

Proteus vulgaris HX-19 = experiment: as above; format: cell-based
Source text: as §1

[3] = test system: Klebsiella pneumoniae PCI 602; experiment: as above; format: cell-based
Source text: as §1

Escherichia coli NIHJ = experiment: as above; format: cell-based; conditions: read-out: In vitro Antibacterial Activities
Source text: as §1

[4] = test system: Pseudomonas aeruginosa 104; experiment: as above; format: cell-based
Source text: as §1

[5] = test system: Proteus mirabilis GN-2425; experiment: as above; format: cell-based
Source text: as §1

[6] = test system: Diplococcus pneumoniae Newfeld; experiment: as above; format: cell-based; conditions: Streptococcus pneumoniae, read-out: In vitro Antibacterial Activities
Source text: as §1

[7] = test system: Staphylococcus aureus 209-P; experiment: as above; format: cell-based; conditions: read-out: In vitro Antibacterial Activities
Source text: as §1

Sarcina lutea PCI 1001 = experiment: as above; format: cell-based; conditions: Micrococcus luteus, PCI1001, read-out: In vitro Antibacterial Activities
Source text: as §1

[8] = test system: Streptococcus hemolyticus A-1; experiment: as above; format: cell-based; conditions: Streptococcus pyogenes, A1, read-out: In vitro Antibacterial Activities
Source text: as §1

[9] = test system: Staphylococcus albus 1200 A; experiment: as above; format: cell-based; conditions: read-out: In vitro Antibacterial Activities
Source text: as §1

gram-negative bacteria = experiment: in vitro antibacterial activity on gram-negative bacteria, tube dilution method; format: cell-based; conditions: for antibacterial activities on gram-negative bacteria: tube dilution method, result in words
Source text: as §1

[10] = preliminary toxicity in rats, 9 days oral; format: in vivo, female rats of Spraugue-Dewlty-SLC strain; conditions: 1000 to 2000 mg/kg/day orally for 9 days
Method: To 6-week old female rats of Spraugue-Dewlty-SLC strain, 1000 to 2000 mg/kg/day of Compound A were administered orally for 9 days.

Escherichia coli No. 34 = experiment: in vivo protection of infected mice, oral; conditions: for ED50: Escherichia coli, intraperitoneal infection, oral 1 hour and 6 hours after infection, E. coli No. 34
Method: (§2) The mice were inoculated intraperitoneally with the test organisms in 5% gastric mucin. The test compounds were suspended in 0.5% carboxymethylcellulose and administered orally 1 hour and 6 hours after infection.

Escherichia coli No. 37 = experiment: in vivo protection of infected mice, oral; conditions: intraperitoneal infection, oral 1 hour and 6 hours after infection, E. coli No. 37
Method: as §2

[11] = test system: Proteus mirabilis GN-2425; experiment: in vivo protection of infected mice, oral; conditions: for ED50: Proteus mirabilis, GN2425, intraperitoneal infection, oral 1 hour and 6 hours after infection, P. mirabilis GN-2425
Method: as §2

[12] = concentrations in serum of mice after a single oral dose; format: in vivo; conditions: single oral dose of 50 mg/kg
Method: […] concentrations in serum of Compound (A) and Compound (D) were determined in the mice after a single oral dose of 50 mg/kg. […] The peak value for Compound (A) was about 12 times higher than that of Compound (D).

[13] = urinary excretion in fasting rats after a single oral dose; format: in vivo; conditions: single oral dose of 50 mg/kg
Method: Urinary excretions in fasting rats after a single oral dose of 50 mg/kg were also examined.
Compound (A) was excreted in the urine about 7 times faster than Compound (D). Recovery rates of Compound (A) in the urine were 2.0% after 24 hours.

[14] = prior art statement in words; cited from earlier work
organism tested = experiment: in vivo protection of infected mice, organisms tested overall; conditions: oral, result in words
Method: as §2

[15] = prior art statement in words; cited from earlier work; remark: listed apart in the source
[16] = test system: Trichophyton rubrum and Aspergillus niger; experiment: antifungal activity on Sabourand agar, fungi tested overall; format: cell-based
Method: (§3) The activities of ethyl 2,9-dichlorothiazolo[5,4-f]quinoline-8-carboxylate-6-oxide (Compound (F)) on Trichophyton rubrum and Aspergillus niger were tested on Sabourand agar. […] The minimum inhibitory concentrations were 0.78 mcg/ml for Trichophyton rubrum and 25 mcg/ml for Aspergillus niger.

Aspergillus niger = experiment: antifungal activity on Sabourand agar; format: cell-based; conditions: read-out: minimum inhibitory concentration
Method: as §3

Trichophyton rubrum = experiment: antifungal activity on Sabourand agar; format: cell-based; conditions: read-out: minimum inhibitory concentration
Method: as §3

[17] = HX19, Proteus vulgaris HX-19, tube dilution method, read-out: In vitro Antibacterial Activities
[18] = PCI602, Klebsiella pneumoniae PCI 602, tube dilution method, read-out: In vitro Antibacterial Activities
[19] = Escherichia coli NIHJ, tube dilution method
[20] = Pseudomonas aeruginosa 104, tube dilution method, read-out: In vitro Antibacterial Activities
[21] = GN2425, Proteus mirabilis GN-2425, tube dilution method, read-out: In vitro Antibacterial Activities
[22] = Staphylococcus aureus 209-P, tube dilution method

| SMILES | MIC [2] [µg/mL] | MIC (Proteus vulgaris HX-19; [17]) [µg/mL] | MIC [3, 18] [µg/mL] | MIC (Escherichia coli NIHJ; [19]) [µg/mL] | MIC [4, 20] [µg/mL] | MIC [5, 21] [µg/mL] | MIC [7, 22] [µg/mL] | antibacterial activities on gram-negative bacteria (gram-negative bacteria) | ED50 (Escherichia coli No. 34) [mg/kg] | ED50 (Escherichia coli No. 37) [mg/kg] | ED50 [11] [mg/kg] | further results |
| --- | --- | --- | --- | --- | --- | --- | --- | --- | --- | --- | --- | --- |
| O=C(O)c1cn(OCc2ccccc2)c2ccc3c(sc(=O)n3Cc3ccccc3)c2c1=O [B, 3-benzyl-6-benzyloxy-2,3,6,9-tetrahydro-2,9-dioxothiazolo[5,4-f]quinoline-8-carboxylic acid] | 0.78 (≈ 1.7 µM) | > 200 | > 200 | > 200 | > 200 | > 200 | 1.56 (≈ 3.4 µM) |  |  |  |  | inhibitory activity on gram-positive bacteria [1]: exhibited inhibitory activity on gram-positive bacteria; MIC [6]: 1.56 µg/mL (≈ 3.4 µM); MIC (Sarcina lutea PCI 1001): 1.56 µg/mL (≈ 3.4 µM); MIC [8]: 1.56 µg/mL (≈ 3.4 µM); MIC [9]: 3.13 µg/mL (≈ 6.83 µM) |
| C=CCOn1cc(C(=O)O)c(=O)c2c3sc(=O)n(CC=C)c3ccc21 [C, 2,3,6,9-tetrahydro-3-allyl-6-allyloxy-2,9-dioxothiazolo[5,4-f]quinoline-8-carboxylic acid] |  | 3.13 (≈ 8.73 µM) | 200 (≈ 558 µM) | 100 (≈ 279 µM) | > 200 | > 200 | 50 (≈ 140 µM) | showed antibacterial activities on gram-negative bacteria |  |  |  |  |
| COn1cc(C(=O)O)c(=O)c2c3sc(=O)n(C)c3ccc21 [Compound A, 2,3,6,9-Tetrahydro-6-methoxy-3-methyl-2,9-dioxothiazolo[5,4-f]quinoline-8-carboxylic acid] | 0.5 (≈ 1.63 µM) | 0.1 (≈ 0.326 µM) | 0.2 (≈ 0.653 µM) | 0.2 (≈ 0.653 µM) | 25 (≈ 81.6 µM) | 0.39 (≈ 1.27 µM) | 12.5 (≈ 40.8 µM) | showed antibacterial activities on gram-negative bacteria | 50 | > 20 | 14 | macroscopic examinations [10]: no abnormal findings were observed; symptoms [10]: No significant symptoms were observed; urinalysis (pH, protein, glucose, ketone bodies and occult blood) [10]: no abnormality was found; body weight ([10]; at all doses): did not decrease; body weight-gain ([10]; at all doses): slightly decreased; activity in vitro compared with Compound (D) (gram-negative bacteria; comparison in words): as active as Compound (D); activity in vitro compared with Compound (E) (gram-negative bacteria; comparison with nalidixic acid in words): more active than Compound (E); effectiveness in protecting mice against E. Coli No. 34, compared with Compound (D) (Escherichia coli No. 34; oral, comparison in words): more effective than Compound (D); effectiveness in protecting mice against P. Mirabilis GN 2425, compared with Compound (D) ([11]; oral, comparison in words): more effective than Compound (D); time at which serum levels reached a maximum [12]: within an hour; peak serum value relative to Compound (D) ([12]; times higher than Compound (D)): about 12 times; dose excreted at 24 h ([13]; rat, urine, after 24 hours, read-out: Recovery rates in the urine): 2%; excretion in the urine, times faster than Compound (D) [13]: about 7 times; urinary concentration compared with Compound (D) ([13]; in words): superior to Compound (D); urinary recovery rate compared with Compound (D) ([13]; in words): superior to Compound (D) |
| CCn1cc(C(=O)O)c(=O)c2c3sc(=O)n(C)c3ccc21 [Compound D, 6-ethyl-2,3,6,9-tetrahydro-3-methyl-2,9-dioxothiazolo[5,4-f]quinoline-8-carboxylic acid, reference compound] | 0.25 (≈ 0.821 µM) | 0.1 (≈ 0.329 µM) | 0.2 (≈ 0.657 µM) | 0.2 (≈ 0.657 µM) | > 200 | 0.78 (≈ 2.56 µM) | 12.5 (≈ 41.1 µM) |  | > 100 | > 40 | > 40 | antibacterial activity in vitro [14]: noticeable antibacterial activity in vitro; activities on the organism tested in vivo (organism tested): did not show activities on the organism tested; antibacterial activity in vivo [15]: does not possess a sufficient antibacterial activity in vivo |
| CCn1cc(C(=O)O)c(=O)c2ccc(C)nc21 [E, nalidixic acid, reference compound] |  |  |  |  |  |  |  |  |  |  |  | MIC (Proteus vulgaris HX-19; Proteus vulgaris, HX19, read-out: In vitro Antibacterial Activities): 0.78 µg/mL (≈ 3.36 µM); MIC ([3]; Klebsiella pneumoniae, PCI602, read-out: In vitro Antibacterial Activities): 3.13 µg/mL (≈ 13.5 µM); MIC (Escherichia coli NIHJ; Escherichia coli): 3.13 µg/mL (≈ 13.5 µM); MIC ([4]; Pseudomonas aeruginosa, 104, read-out: In vitro Antibacterial Activities): > 200 µg/mL; MIC ([5]; Proteus mirabilis, GN2425, read-out: In vitro Antibacterial Activities): 6.25 µg/mL (≈ 26.9 µM); MIC ([7]; Staphylococcus aureus, 209P): 100 µg/mL (≈ 431 µM) |
| CCOC(=O)c1c[n+]([O-])c2ccc3nc(Cl)sc3c2c1Cl [F, ethyl 2,9-dichlorothiazolo[5,4-f]quinoline-8-carboxylate-6-oxide] |  |  |  |  |  |  |  |  |  |  |  | inhibitory activity on the fungi tested ([16]; Sabourand agar, result in words): exhibited inhibitory activity on the fungi tested; antifungal activity in vitro relative to griseofulvin ([16]; in vitro, comparison in words): twice as active than griseofulvin; MIC (Aspergillus niger): 25 µg/mL (≈ 72.8 µM); MIC (Trichophyton rubrum): 0.78 µg/mL (≈ 2.27 µM) |
